Literature values in patent publication US12496272B1, “Stable epinephrine suspension formulation for inhalation with HFO propellant” (Amphastar Pharmaceuticals, Inc., priority 2024, dated 2025).

Row | SMILES | Water solubility (at 25° C.) [at 25 °C ppm] | Log P (octanol/water)
1 | FCC(F)(F)F [HFA-134a, 1,1,1,2-tetrafluoroethane] | 2220 | 1.1
2 | FC(C(F)(F)F)C(F)(F)F [HFA-227, 1,1,1,2,3,3,3-heptafluoropropane] |  | 2.1
3 | F/C=C/C(F)(F)F [HFO-1234ze(E), trans-1,3,3,3-tetrafluoropropene] |  | 1.3
